Experimental data reported in the NIST ThermoML archive (doi:10.1016/j.jct.2016.08.005).

Details: Liquid, Vibrating tube method

Cc1cccs1 [2-methylthiophene]
Details	mass density [kg/m3]
283.15 K, 100 kPa	1030.98
283.15 K, 2000 kPa	1032.44
283.15 K, 5000 kPa	1034.69
283.15 K, 7000 kPa	1036.18
283.15 K, 10000 kPa	1038.39
283.15 K, 15000 kPa	1041.92
283.15 K, 20000 kPa	1045.36
283.15 K, 25000 kPa	1048.69
283.15 K, 30000 kPa	1051.93
283.15 K, 35000 kPa	1055.07
283.15 K, 40000 kPa	1058.12
283.15 K, 45000 kPa	1061.09
283.15 K, 50000 kPa	1063.97
283.15 K, 55000 kPa	1066.8
283.15 K, 60000 kPa	1069.53
283.15 K, 65000 kPa	1072.21
288.15 K, 100 kPa	1025.61
288.15 K, 2000 kPa	1027.12
288.15 K, 5000 kPa	1029.45
288.15 K, 7000 kPa	1030.97
288.15 K, 10000 kPa	1033.22
288.15 K, 15000 kPa	1036.86
288.15 K, 20000 kPa	1040.39
288.15 K, 25000 kPa	1043.79
288.15 K, 30000 kPa	1047.1
288.15 K, 35000 kPa	1050.32
288.15 K, 40000 kPa	1053.43
288.15 K, 45000 kPa	1056.47
288.15 K, 50000 kPa	1059.42
288.15 K, 55000 kPa	1062.27
288.15 K, 60000 kPa	1065.07
288.15 K, 65000 kPa	1067.79
293.15 K, 100 kPa	1020.2
293.15 K, 2000 kPa	1021.76
293.15 K, 5000 kPa	1024.16
293.15 K, 7000 kPa	1025.73
293.15 K, 10000 kPa	1028.04
293.15 K, 15000 kPa	1031.77
293.15 K, 20000 kPa	1035.39
293.15 K, 25000 kPa	1038.88
293.15 K, 30000 kPa	1042.27
293.15 K, 35000 kPa	1045.56
293.15 K, 40000 kPa	1048.68
293.15 K, 45000 kPa	1051.85
293.15 K, 50000 kPa	1054.87
293.15 K, 55000 kPa	1057.79
293.15 K, 60000 kPa	1060.64
293.15 K, 65000 kPa	1063.42
298.15 K, 100 kPa	1014.79
298.15 K, 2000 kPa	1016.39
298.15 K, 5000 kPa	1018.85
298.15 K, 7000 kPa	1020.48
298.15 K, 10000 kPa	1022.84
298.15 K, 15000 kPa	1026.7
298.15 K, 20000 kPa	1030.4
298.15 K, 25000 kPa	1033.98
298.15 K, 30000 kPa	1037.45
298.15 K, 35000 kPa	1040.82
298.15 K, 40000 kPa	1044.09
298.15 K, 45000 kPa	1047.25
298.15 K, 50000 kPa	1050.33
298.15 K, 55000 kPa	1053.31
298.15 K, 60000 kPa	1056.23
298.15 K, 65000 kPa	1059.07
303.15 K, 100 kPa	1009.39
303.15 K, 2000 kPa	1011.03
303.15 K, 5000 kPa	1013.57
303.15 K, 7000 kPa	1015.23
303.15 K, 10000 kPa	1017.69
303.15 K, 15000 kPa	1021.62
303.15 K, 20000 kPa	1025.42
303.15 K, 25000 kPa	1029.11
303.15 K, 30000 kPa	1032.66
303.15 K, 35000 kPa	1036.1
303.15 K, 40000 kPa	1039.44
303.15 K, 45000 kPa	1042.68
303.15 K, 50000 kPa	1045.81
303.15 K, 55000 kPa	1048.89
303.15 K, 60000 kPa	1051.84
303.15 K, 65000 kPa	1054.72
308.15 K, 100 kPa	1003.95
308.15 K, 2000 kPa	1005.62
308.15 K, 5000 kPa	1008.23
308.15 K, 7000 kPa	1009.96
308.15 K, 10000 kPa	1012.46
308.15 K, 15000 kPa	1016.53
308.15 K, 20000 kPa	1020.43
308.15 K, 25000 kPa	1024.2
308.15 K, 30000 kPa	1027.84
308.15 K, 35000 kPa	1031.36
308.15 K, 40000 kPa	1034.78
308.15 K, 45000 kPa	1038.08
308.15 K, 50000 kPa	1041.29
308.15 K, 55000 kPa	1044.4
308.15 K, 60000 kPa	1047.43
308.15 K, 65000 kPa	1050.39
313.15 K, 100 kPa	998.5
313.15 K, 2000 kPa	1000.23
313.15 K, 5000 kPa	1002.93
313.15 K, 7000 kPa	1004.7
313.15 K, 10000 kPa	1007.28
313.15 K, 15000 kPa	1011.45
313.15 K, 20000 kPa	1015.45
313.15 K, 25000 kPa	1019.32
313.15 K, 30000 kPa	1023.04
313.15 K, 35000 kPa	1026.65
313.15 K, 40000 kPa	1030.14
313.15 K, 45000 kPa	1033.52
313.15 K, 50000 kPa	1036.79
313.15 K, 55000 kPa	1039.99
313.15 K, 60000 kPa	1043.07
313.15 K, 65000 kPa	1046.08
318.15 K, 100 kPa	993.03
318.15 K, 2000 kPa	994.81
318.15 K, 5000 kPa	997.59
318.15 K, 7000 kPa	999.4
318.15 K, 10000 kPa	1002.05
318.15 K, 15000 kPa	1006.33
318.15 K, 20000 kPa	1010.45
318.15 K, 25000 kPa	1014.42
318.15 K, 30000 kPa	1018.23
318.15 K, 35000 kPa	1021.93
318.15 K, 40000 kPa	1025.49
318.15 K, 45000 kPa	1028.94
318.15 K, 50000 kPa	1032.3
318.15 K, 55000 kPa	1035.54
318.15 K, 60000 kPa	1038.69
318.15 K, 65000 kPa	1041.75
323.15 K, 100 kPa	987.55
323.15 K, 2000 kPa	989.38
323.15 K, 5000 kPa	992.24
323.15 K, 7000 kPa	994.11
323.15 K, 10000 kPa	996.84
323.15 K, 15000 kPa	1001.25
323.15 K, 20000 kPa	1005.47
323.15 K, 25000 kPa	1009.52
323.15 K, 30000 kPa	1013.45
323.15 K, 35000 kPa	1017.21
323.15 K, 40000 kPa	1020.87
323.15 K, 45000 kPa	1024.41
323.15 K, 50000 kPa	1027.81
323.15 K, 55000 kPa	1031.14
323.15 K, 60000 kPa	1034.36
323.15 K, 65000 kPa	1037.48
328.15 K, 100 kPa	982.01
328.15 K, 2000 kPa	983.93
328.15 K, 5000 kPa	986.87
328.15 K, 7000 kPa	988.79
328.15 K, 10000 kPa	991.61
328.15 K, 15000 kPa	996.12
328.15 K, 20000 kPa	1000.47
328.15 K, 25000 kPa	1004.64
328.15 K, 30000 kPa	1008.65
328.15 K, 35000 kPa	1012.52
328.15 K, 40000 kPa	1016.24
328.15 K, 45000 kPa	1019.86
328.15 K, 50000 kPa	1023.37
328.15 K, 55000 kPa	1026.73
328.15 K, 60000 kPa	1030.01
328.15 K, 65000 kPa	1033.2
333.15 K, 100 kPa	976.49
333.15 K, 2000 kPa	978.46
333.15 K, 5000 kPa	981.49
333.15 K, 7000 kPa	983.47
333.15 K, 10000 kPa	986.36
333.15 K, 15000 kPa	991.02
333.15 K, 20000 kPa	995.46
333.15 K, 25000 kPa	999.74
333.15 K, 30000 kPa	1003.86
333.15 K, 35000 kPa	1007.82
333.15 K, 40000 kPa	1011.63
333.15 K, 45000 kPa	1015.34
333.15 K, 50000 kPa	1018.9
333.15 K, 55000 kPa	1022.36
333.15 K, 60000 kPa	1025.71
333.15 K, 65000 kPa	1028.94
338.15 K, 100 kPa	970.87
338.15 K, 2000 kPa	972.92
338.15 K, 5000 kPa	976.06
338.15 K, 7000 kPa	978.09
338.15 K, 10000 kPa	981.08
338.15 K, 15000 kPa	985.87
338.15 K, 20000 kPa	990.45
338.15 K, 25000 kPa	994.85
338.15 K, 30000 kPa	999.06
338.15 K, 35000 kPa	1003.09
338.15 K, 40000 kPa	1007.02
338.15 K, 45000 kPa	1010.79
338.15 K, 50000 kPa	1014.44
338.15 K, 55000 kPa	1017.97
338.15 K, 60000 kPa	1021.38
338.15 K, 65000 kPa	1024.7
